Test results from US5219825A, “Synergistic herbicidal compositions comprising herbicides which generate toxic oxygen radicals and chelating agents which inhibit their detoxification” (Yeda Research and Development Co., Ltd., priority 1986, dated 1993).

Experiments:
Beans = test: Whole plant spray, visual rating; format: in vivo; details: paraquat 100 μM spray to run-off, DDC 0.75% W/V where added, scored 1 day after treatment
Source text: (§1) Seeds of Conyza bonariensis were germinated and plants cultivated as outlined in Example 1. Other species were germinated in a similar mixture and treated at 10 days.
(§2) ^a visual ratings (scored 1 day after treatment): 0 no damage to
(§3) slight burn; 1 moderate burn (may regenerate); 2 severe burn (will die)

Stellaria media = test: Whole plant spray, visual rating; format: in vivo; details: paraquat 30 μM spray to run-off, DDC 0.75% W/V where added, scored 1 day after treatment
Source text: as §1, §2, §3

Sinapsis arvense = test: Whole plant spray, visual rating; format: in vivo; details: paraquat 30 μM spray to run-off, DDC 0.75% W/V where added, scored 1 day after treatment
Source text: as §1, §2, §3

[1] = test system: Biotypes of certain weed species; details: cited from earlier work
weed species = details: cited from earlier work

C[n+]1ccc(-c2cc[n+](C)cc2)cc1 [paraquat, 1,1'-dimethyl-4-4'bipyridium ion]
visual rating (Beans): 1.5
visual rating (Stellaria media): 0.5
visual rating (Sinapsis arvense): 0.5
rate that does not kill resistant biotypes ([1]; biotypes that have evolved resistance to paraquat): > 16 kg/ha
rate that controls the sensitive biotype ([1]; sensitive biotype of the same species): 1 kg/ha
rate at which species are killed (weed species; Bromis inermis, Amaranthus retroflexus and wheat): 0.01 kg/ha
rate required for good control (weed species; Digitaria, Chenopodium album, Sinapis arvensis and Galium aparine): 3 kg/ha
